Test results as given in paper PMC8836281, “Characterisation of Endogenous Peptides Present in Virgin Olive Oil” (International Journal of Molecular Sciences, 2022).
Where two headings read alike, the source gives them in different places. Each block holds one compound with its values, some of them ahead of it. Residues, ends and D or L forms follow the SMILES beside them. No end group written: not given here.

How the values were obtained:
[1] = cited from earlier work
[2] = test system: pre- or hypertensive humans; parameters: method as in PMID 25608938; conditions: supplementation of pre- or hypertensive humans for longer than four weeks; meta-analysis of 30 trials; cited from earlier work
[3] = test system: ACE; conditions: read-out: ACE inhibition IC50, cited from earlier work
[4] = target: T1, rabbit-lung ACE (Oryctolagus cuniculus, UniProt P12822); experiment: ACE-inhibitory activity of synthetic peptides (fluorescence assay, substrate Abz-Gly-Phe(NO2)-Pro); assay type: biochemical; conditions: means ± SD of three different experiments, ND = not detected, read-out: ACEi Activity IC50 (µM) ± SD
T1 construct: rabbit-lung ACE (E.C.3.4.15.1., Sigma-Aldrich); purchased Sigma-Aldrich; host or cells: rabbit lung (tissue-derived enzyme)
T1 sequence (P12822 34-1310): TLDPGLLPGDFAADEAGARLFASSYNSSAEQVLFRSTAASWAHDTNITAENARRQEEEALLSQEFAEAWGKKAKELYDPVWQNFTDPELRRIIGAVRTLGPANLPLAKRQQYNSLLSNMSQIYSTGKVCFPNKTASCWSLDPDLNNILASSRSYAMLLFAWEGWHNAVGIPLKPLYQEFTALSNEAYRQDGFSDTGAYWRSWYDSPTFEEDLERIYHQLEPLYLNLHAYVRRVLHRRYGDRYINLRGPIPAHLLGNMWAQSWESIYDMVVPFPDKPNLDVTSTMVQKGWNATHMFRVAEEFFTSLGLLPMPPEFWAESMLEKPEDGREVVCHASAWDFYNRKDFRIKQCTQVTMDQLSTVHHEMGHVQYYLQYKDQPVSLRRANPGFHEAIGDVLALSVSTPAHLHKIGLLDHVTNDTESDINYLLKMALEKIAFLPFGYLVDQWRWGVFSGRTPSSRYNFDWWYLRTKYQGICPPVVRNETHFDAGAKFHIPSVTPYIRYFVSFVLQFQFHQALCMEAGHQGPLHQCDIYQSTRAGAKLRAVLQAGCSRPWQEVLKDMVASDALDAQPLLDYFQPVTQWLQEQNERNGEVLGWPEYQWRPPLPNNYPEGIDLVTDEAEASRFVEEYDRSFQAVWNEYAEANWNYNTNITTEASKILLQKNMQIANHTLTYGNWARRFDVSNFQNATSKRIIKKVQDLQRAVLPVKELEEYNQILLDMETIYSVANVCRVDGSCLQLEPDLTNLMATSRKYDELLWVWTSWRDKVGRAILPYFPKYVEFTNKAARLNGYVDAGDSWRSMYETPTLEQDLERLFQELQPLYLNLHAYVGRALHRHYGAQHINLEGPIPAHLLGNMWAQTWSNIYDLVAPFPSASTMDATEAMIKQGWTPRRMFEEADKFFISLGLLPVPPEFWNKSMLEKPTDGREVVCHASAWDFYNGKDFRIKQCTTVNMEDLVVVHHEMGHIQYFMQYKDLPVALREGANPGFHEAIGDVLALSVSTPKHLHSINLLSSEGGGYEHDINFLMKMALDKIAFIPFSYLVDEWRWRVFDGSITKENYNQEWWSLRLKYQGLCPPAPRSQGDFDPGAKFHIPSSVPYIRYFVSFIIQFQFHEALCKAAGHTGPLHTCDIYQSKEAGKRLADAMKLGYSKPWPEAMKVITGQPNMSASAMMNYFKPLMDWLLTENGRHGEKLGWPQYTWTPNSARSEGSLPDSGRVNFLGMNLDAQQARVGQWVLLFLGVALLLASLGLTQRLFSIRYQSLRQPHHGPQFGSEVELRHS
Experimental: The ACE-inhibitory activity of the synthetic peptides was determined according to the method described in [84], with some modifications. This assay is based on the ability of ACE to hydrolyse the substrate o-aminobenzoylglycyl-p-nitrophenylalanyl-proline (Abz-Gly-Phe-(NO2)-Pro, Bachem Feinchemikalien, Bubendorf, Switzerland), producing the fluorescent product o-aminobenzoylglycine (Abz-Gly). Reagents used include: buffer A: 150 mM Tris-HCl buffer (pH 8.3), with 0.1 µM ZnCl2; buffer B: 150 mM de Tris-HCl buffer (pH 8.4), with 1125 mM NaCl; ACE solution (stock): rabbit-lung ACE (E.C.3.4.15.1., Sigma-Aldrich), dissolved in buffer A containing 50% glycerol to make an enzyme concentration of 1 U/mL. This solution was diluted 1/20 with buffer A to obtain the working solution (50 mU/mL), which was prepared fresh every day to conduct the experiment. The substrate solution (Abz-Gly-Phe(NO2)-Pro) was dissolved in buffer B to a final concentration of 0.45 mM. This solution was also prepared every day before its use and was protected from light and kept at 4 °C. The assay was carried out using a fluorescence technique. Black polystyrene plates of 96 wells (Thermo Scientific, Waltham, Massachussets, USA) were used. The wells contained the following reaction solutions: control = 50 μL of Milli-Q water and 50 μL of ACE solution; blank = 50 μL of Milli-Q water and 50 μL of buffer A; sample = 50 μL of sample and 50 μL of ACE solution; sample blank = 50 μL of sample and 50 μL of buffer A. The enzymatic reaction was initiated by adding 200 μL (final volume in each well 300 μL) of substrate solution, and the plate was immediately mixed and incubated at 37 °C in a VICTORX5 fluorometer (PerkinElmer, USA). The fluorescence generated was measured after 30 min using 355 and 420 nm as excitation and emission wavelengths, respectively. The ACE-inhibitory activity of each sample was determined in triplicate. The ACE-inhibitory activity was calculated using the following formula: ACE inhibitory activity (%)=(FC−FB)−(FS−FBs)/FC−FB × 100 where FC (control) is the fluorescence emitted after the action of ACE on the substrate, without inhibitor (i.e., sample); FB (blank) is the fluorescence emitted by the substrate; FS (sample) is the fluorescence emitted after the action of ACE on the substrate, with inhibitor sample; and FBs (blank sample) are the fluorescences emitted by the substrate and the sample.
The ACE-inhibitory activity is expressed as IC50, which is the concentration of inhibitor required to inhibit the activity of ACE by 50%.

Compound: N[C@@H](CCC(=O)N[C@@H](CS)C(=O)NCC(=O)O)C(=O)O [glutathione]
antioxidant activity (TEAC) [1]: 0.9 TEAC

Compound: IPP
effect on systolic and diastolic blood pressure [2]: significant reduction in systolic and diastolic blood pressure
IC50 ([3]; peptides described in dairy): 5 µM

Compound: VPP
effect on systolic and diastolic blood pressure [2]: significant reduction in systolic and diastolic blood pressure
IC50 ([3]; peptides described in dairy): 9 µM

IC50 [4]: 41.5 ± 2.09 µM
Compound: DCHYFL [Peptide no. 2 de novo, DCHYFL]

IC50 [4]: 57.2 ± 4.31 µM
Compound: VCGEAFGKA [Peptide no. 14]

Compound: SVY
IC50 ([3]; C-terminal di-/tripeptide of de novo peptide no. 1): 8.1 µM

IC50 [4]: 25.6 ± 0.41 µM
Compound: CC(C)[C@H](NC(=O)[C@H](CO)NC(=O)[C@H](Cc1ccc(O)cc1)NC(=O)[C@H](CS)NC(=O)[C@@H](N)CS)C(=O)N[C@@H](Cc1ccc(O)cc1)C(=O)O [Peptide no. 1 de novo, CCYSVY] (H-CCYSVY-OH)

IC50 [4]: 3.76 ± 0.39 µM
Compound: CPANGFY [Peptide no. 19, CPANGFY]

IC50 [4]: 0.98 ± 0.04 µM
Compound: NALLCSNS [compound 18]
